According to ChEMBL document CHEMBL2163194, “Production of cytotoxic glidobactins/luminmycins by Photorhabdus asymbiotica in liquid media and live crickets” (J Nat Prod, 2012):

Assays:
NIH3T3 = assay: Cytotoxicity against mouse NIH/3T3 cells assessed as reduction in cell viability after 72 hrs by MTT assay; assay type: cell-based; details: nih3t3, 72 h
[1] = Inhibition of 20S proteasome in human MIAPaCa2 cells after 90 mins by fluorescence-based […]; assay type: cell-based; details: mia paca-2
MIA PaCa-2 = assay: Cytotoxicity against human MIAPaCa2 cells assessed as reduction in cell viability after 72 hrs by MTT assay; assay type: functional, cell-based; details: MIA PaCa-2, 72 h

Compound	Activity (NIH3T3)	IC50 [1] [nM]	IC50 (MIA PaCa-2) [nM]
CCCCCCC/C=C/C=C/C(=O)N[C@H](C(=O)N[C@H]1C[C@@H](O)CCNC(=O)/C=C/[C@H](C)NC1=O)[C@@H](C)O [GLIDOBACTIN A]	Non-toxic	69	7
CCCCCCC/C=C/C=C/C(=O)N[C@H](C(=O)N[C@H]1CCCCNC(=O)/C=C/[C@H](C)NC1=O)[C@@H](C)O [LUMINMYCIN A]	Non-toxic	88	18
CC(C)CCCCC/C=C/C=C/C(=O)N[C@H](C(=O)N[C@H]1CCCCNC(=O)/C=C/[C@H](C)NC1=O)[C@@H](C)O [LUMINMYCIN D]	Non-toxic	380	110
